Results published in patent US7534915B2, “Non-symmetrical gelling agent” (Applied Nanosystems B.V., priority 2003, dated 2009).
Each block holds one compound with its values, some of them ahead of it.

Assay: Gel test (vial inversion)
Assay type: physicochemical
Procedure: A weighed amount of solid was dissolved in 0.5 or 1 ml of the solvent in a closed 2.0 ml vial using a heating gun or a heating block and subsequently slowly cooled to room temperature by standing in the air. Gelation was determined by turning the vial upside down and gentle shaking. If no flow of the mass was observed, the mass was defined to be a gel. Alternatively, a weighed amount of solid was dissolved in 1 mL of solvent by the addition of acid or base. The subsequent addition of base or acid then gave gelation. Alternatively, a weighed amount of solid was dissolved in a small amount of solvent. The subsequent addition of a large amount of non-solvent then gave gelation. Alternatively, the solution of gelator/thickener was added to the non-solvent, resulting in gelation. Alternatively, a weighed amount of solid was mixed with 1 mL of solvent by sonication. After stopping the sonication, gelation occurred. Alternatively a weighed amount of solid was mixed with 1 mL of solvent by brief vortexing after which gelation occurred. Alternatively a weighed amount of solid was mixed with 1 mL of solvent after which gelation occurred.

[1] = PEG 400 (printed PEG for compound 20)

Compound: COc1ccc(NC(=O)[C@H](Cc2ccccc2)NC(=O)[C@@H]2C[C@H](C(=O)O)C[C@H](C(=O)O)C2)cc1 [Compound 9, CHex(AmPhe-AmPh-OMe)(COOH)2]
Gel test (3 mg/mL in H2O): clear gel

Compound: CSCC[C@H](NC(=O)[C@@H]1C[C@H](C(=O)NCCOCCO)C[C@H](C(=O)NCCOCCO)C1)C(=O)Nc1ccc2ccccc2c1 [Compound 4, CHex(AmMet-AmβNA)(AmEtOEtOH)2]
Gel test (1 mg/mL in H2O): clear gel | Gel test (3 mg/mL in MeOH): clear gel

Compound: O=C(O)[C@@H]1C[C@H](C(=O)O)C[C@H](C(=O)N[C@@H](Cc2ccccc2)C(=O)NCCc2ccccc2)C1 [Compound 25, CHex(AmPheAmEtPh)(COOH)2]
Gel test (H2O, concentration not given): gel | Gel test (toluene): gel

Compound: O=C(NCCOCCO)[C@@H]1C[C@H](C(=O)NCCOCCO)C[C@H](C(=O)N[C@@H](Cc2ccc(O)cc2)C(=O)Nc2ccc3ccccc3c2)C1 [Compound 24, CHex(AmTyrAmβNA)(AmEtOEtOH)2]
Gel test (1 mg/mL in H2O): clear gel | Gel test (EtOH): gel | Gel test (MeCN): gel | Gel test (olive oil): gelly precipitate

Compound: COc1ccc(NC(=O)[C@H](Cc2ccccc2)NC(=O)[C@@H]2C[C@H](C(=O)NCCOCCO)C[C@H](C(=O)NCCOCCO)C2)cc1 [Compound 10, CHex(AmPhe-AmPh-OMe)(AmEtOEtOH)2]
Gel test (3 mg/mL in H2O): clear gel

Compound: O=C(O)[C@@H]1C[C@H](C(=O)O)C[C@H](C(=O)N[C@@H](Cc2ccccc2)C(=O)N[C@@H](Cc2ccccc2)C(=O)O)C1 [Compound 23, CHex(AmPheAmPheOH)(COOH)2]
Aqueous gel formation by acidification (compound 22 heated in 1N NaOH (aq), cooled to RT, 2N HCl (aq) added): gel

Compound: COC(=O)[C@H](Cc1ccccc1)NC(=O)[C@H](Cc1ccccc1)NC(=O)[C@@H]1C[C@H](C(=O)O)C[C@H](C(=O)O)C1 [Compound 22, CHex(AmPheAmPheOMe)(COOH)2]
Gel test (toluene): gel

Compound: O=C(NCCOCCO)[C@@H]1C[C@H](C(=O)NCCOCCO)C[C@H](C(=O)N[C@@H](Cc2ccccc2)C(=O)NCc2ccccc2)C1 [Compound 8, CHex(AmPhe-AmBn)(AmEtOEtOtH)2]
Gel test (1 mg/mL in H2O): clear gel (thixotropic) | Gel test (EtOH): gel | Gel test (H2O/PG mixtures): gel | Gel test (H2O/t-BuOH (TBA/H2O) mixtures): gel | Gel test (MeCN): gel | Gel test [1]: gel | Gelation of emulsion (hydrogel 2 mg/ml + olive oil 200 μL, vortexed five seconds): gelated emulsion | Gel test (olive oil): weak gel | Gel test (propylene glycol (PG)): gel | Gel test (t-BuOH): gel

Compound: O=C(NCCOCCO)[C@@H]1C[C@H](C(=O)NCCOCCO)C[C@H](C(=O)N[C@@H](Cc2ccccc2)C(=O)Nc2ccc([N+](=O)[O-])cc2)C1 [Compound 14, CHex(AmPheAmPhNO2)(AmEtOEtOH)2]
Gel test (H2O, concentration not given): yellow, weak gel | Stability upon heating in water (heating in water, yellow color (p-NA) observed): hydrolysis of the PheAmPhNO2 amide takes place

Compound: O=C(NCCOCCO)[C@@H]1C[C@H](C(=O)NCCOCCO)C[C@H](C(=O)N[C@@H](Cc2ccccc2)C(=O)NC2CCCCC2)C1 [Compound 18, CHex(AmPheAmCHex)(AmEtOEtOH)2]
Gel test (2 mg/mL in H2O): clear gel | Gel test (20 mg/mL in DMSO): turbid gel

Compound: CSCC[C@H](NC(=O)[C@@H]1C[C@H](C(=O)NCCO)C[C@H](C(=O)NCCO)C1)C(=O)Nc1ccc2ccccc2c1 [Compound 5, CHex(AmMet-AmβNA)(AmEtOH)2]
Gel test (2 mg/mL in H2O): clear gel

Compound: O=C(NCCOCCO)[C@@H]1C[C@H](C(=O)NCCOCCO)C[C@H](C(=O)N[C@@H](Cc2ccccc2)C(=O)Nc2ccc3ccccc3c2)C1 [Compound 2, CHex(AmPhe-AmβNA)(AmEtOEtOH)2]
Gel test (1 mg/mL in H2O): clear gel

Compound: O=C(NCCOCCO)[C@@H]1C[C@H](C(=O)NCCOCCO)C[C@H](C(=O)N[C@@H](Cc2ccccc2)C(=O)NCCc2ccccc2)C1 [Compound 26, CHex(AmPheAmEtPh)(AmEtOEtOH)2]
Gel test (H2O, concentration not given): gel (thixotropic) | Gel test (H2O/PG mixtures): gel | Gel test (H2O/t-BuOH (TBA/H2O) mixtures): gel | Gel test (propylene glycol (PG)): gel | Gel test (t-BuOH): gel

Compound: C[C@H](NC(=O)[C@@H]1C[C@H](C(=O)O)C[C@H](C(=O)O)C1)C(=O)Nc1ccc2ccccc2c1 [Compound 13, CHex(AmAlaAmβNA)(COOH)2]
Gel test (H2O, concentration not given): gel

Compound: O=C(O)[C@@H]1C[C@H](C(=O)O)C[C@H](C(=O)N[C@@H](Cc2ccccc2)C(=O)Nc2ccc3ccccc3c2)C1 [Compound 1, CHex(AmPhe-AmβNA)(COOH)2]
Gel test (3 mg/mL in H2O): slightly crystalline gel

Compound: CCCCCCCCCCNC(=O)[C@H](Cc1ccccc1)NC(=O)[C@@H]1C[C@H](C(=O)NCCOCCO)C[C@H](C(=O)NCCOCCO)C1 [Compound 20, CHex(AmPheAmDecyl)(AmEtOEtOH)2]
Gel test (EtOH): gel | Gel test (H2O, concentration not given): gel | Gel test [1]: gel | Gel test (toluene): gel

Compound: NC(=O)CC[C@H](NC(=O)[C@@H]1C[C@H](C(=O)O)C[C@H](C(=O)N[C@@H](CCC(N)=O)C(=O)Nc2ccc3ccccc3c2)C1)C(=O)Nc1ccc2ccccc2c1 [Compound 38, CHex(AmGlnAmβNA)2(COOH)]
Gel test (H2O, concentration not given): gel

Compound: CSCC[C@H](NC(=O)[C@@H]1C[C@H](C(=O)O)C[C@H](C(=O)O)C1)C(=O)Nc1ccc2ccccc2c1 [Compound 3, CHex(AmMet-AmβNA)(COOH)2]
Gel test (3 mg/mL in H2O): slightly crystalline gel

Compound: CCCCCC(C)NC(=O)[C@H](Cc1ccccc1)NC(=O)[C@@H]1C[C@H](C(=O)O)C[C@H](C(=O)O)C1 (stereo partly drawn) [Compound 21, CHex(AmPheAm2-Heptyl)(COOH)2]
Gel test (H2O, concentration not given): gel | Gel test (toluene): gel

Compound: CSCC[C@H](NC(=O)[C@@H]1C[C@H](C(=O)NCc2ccncc2)C[C@H](C(=O)NCc2ccncc2)C1)C(=O)Nc1ccc2ccccc2c1 [Compound 6, CHex(AmMet-AmβNA)(AmCH2Pyr)2]
Gel test (1 mg/mL in H2O): slightly turbid gel

Compound: O=C(N[C@@H](Cc1ccccc1)C(=O)NC1CCCCC1)[C@H]1C[C@@H](C(=O)OCc2ccccc2)C[C@@H](C(=O)OCc2ccccc2)C1 [Compound 16, CHex(OBn)2(AmPheAmCHex)]
Gel test (EtOH): gel | Gel test (MeCN): gel | Gel test [1]: gel | Gel test (olive oil): gel

Compound: O=C(O)[C@@H]1C[C@H](C(=O)O)C[C@H](C(=O)N[C@@H](Cc2ccccc2)C(=O)NCc2ccccc2)C1 [Compound 7, CHex(AmPhe-AmBn)(COOH)2]
Gel test (3 mg/mL in H2O): slightly turbid gel

Second part, the compound after the results:

Gel test (EtOH): gel | Gel test [1]: gel
Compound: CCCC[C@H](NC(=O)[C@@H]1C[C@H](C(=O)O)C[C@H](C(=O)N[C@@H](CCCC)C(=O)OC)C1)C(=O)OC [Compound 31, CHex(AmNleOMe)2(COOH)]

Gel test (DMSO): turbid gel
Compound: CNC(=O)[C@H](Cc1ccccc1)NC(=O)[C@@H]1C[C@H](C(=O)N[C@@H](Cc2ccccc2)C(=O)NC)C[C@H](C(=O)OCc2ccccc2)C1 [Compound 33, CHex(AmPheAmMe)2(COOBn)]

Gel test (DMSO/CH2Cl2 mixtures): gel | Gel test (DMSO/EtOH mixtures): gel | Gel test (DMSO/H2O mixtures): gel | Gel test (DMSO/MeCN mixtures): gel | Gel test (DMSO/toluene mixtures): gel | Gel test (H2O, concentration not given): gel | Gel test (H2O/t-BuOH (TBA/H2O) mixtures): gel | Gel test (MeCN): weak gel
Compound: O=C(O)[C@H]1C[C@@H](C(=O)N[C@@H](CO)C(=O)Nc2ccc3ccccc3c2)C[C@@H](C(=O)N[C@@H](CO)C(=O)Nc2ccc3ccccc3c2)C1 [Compound 36, CHex(AmSerAmβNA)2(COOH)]

Gel test (EtOH): gel | Gel test (MeOH): gel | Gel test (olive oil): gel | Gel test (toluene): gel
Compound: COC(=O)[C@H](Cc1ccccc1)NC(=O)[C@@H]1C[C@H](C(=O)N[C@@H](Cc2ccccc2)C(=O)OC)C[C@H](C(=O)OCc2ccccc2)C1 [Compound 29, CHex(AmPhe-OMe)2(OBn)]

Gel test (3 mg/mL in H2O): clear gel | Gel test (EtOH/H2O mixtures): gel | Gel test (PEG 400/H2O mixtures): gel | Gel test (olive oil): gel | Gel test (toluene): gel
Compound: COC(=O)[C@H](Cc1ccccc1)NC(=O)[C@@H]1C[C@H](C(=O)O)C[C@H](C(=O)N[C@@H](Cc2ccccc2)C(=O)OC)C1 [Compound 30, CHex(AmPhe-OMe)2(COOH)]

Gel test (H2O, concentration not given): gel
Compound: CCCC[C@H](NC(=O)[C@@H]1C[C@H](C(=O)O)C[C@H](C(=O)N[C@@H](CCCC)C(=O)O)C1)C(=O)O [Compound 32, CHex(AmNleOH)2(COOH)]

Gel test (DMSO/H2O mixtures): gel | Gel test (H2O/MeOH mixtures): gel | Gel test (H2O/iPrOH mixtures): gel | Gel test (H2O/t-BuOH (TBA/H2O) mixtures): gel
Compound: CC(C)C[C@H](NC(=O)[C@@H]1C[C@H](C(=O)O)C[C@H](C(=O)N[C@@H](CC(C)C)C(=O)Nc2ccc3ccccc3c2)C1)C(=O)Nc1ccc2ccccc2c1 [Compound 37, CHex(AmLeuAmβNA)2(COOH)]

Gel test (H2O, concentration not given): gel | Gel test (H2O/t-BuOH (TBA/H2O) mixtures): gel
Compound: O=C(O)[C@H]1C[C@@H](C(=O)N[C@@H](Cc2ccccc2)C(=O)Nc2ccc3ccccc3c2)C[C@@H](C(=O)N[C@@H](Cc2ccccc2)C(=O)Nc2ccc3ccccc3c2)C1 [Compound 34, CHex(AmPheAmβNA)2(COOH)]

Gel test (H2O, concentration not given): gel
Compound: O=C(CNC(=O)[C@H](Cc1ccccc1)NC(=O)[C@@H]1C[C@H](C(=O)O)C[C@H](C(=O)O)C1)Nc1ccc2ccccc2c1 [Compound 27, CHex(AmPheAmGlyAmβNA)(COOH)2]

Gel test (DMSO/CH2Cl2 mixtures): gel | Gel test (DMSO/EtOH mixtures): gel | Gel test (DMSO/MeCN mixtures): gel | Gel test (DMSO/MeOH mixtures): gel | Gel test (DMSO/toluene mixtures): gel | Gel test (EtOH): gel | Gel test (MeCN): gel
Compound: O=C(N[C@@H](CO)C(=O)Nc1ccc2ccccc2c1)[C@@H]1C[C@H](C(=O)N[C@@H](CO)C(=O)Nc2ccc3ccccc3c2)C[C@H](C(=O)OCc2ccccc2)C1 [Compound 35, CHex(AmSerAmβNA)2(COOBn)]
